Columns and labels:
human USP7 = target: T1, human USP7 (Homo sapiens, UniProt Q93009); experiment: USP7 activity assay (Ub-AMC); type: biochemical; settings: 300 nM Ub-AMC, 100 pM enzyme; compounds tested from 200 µM to 91 nM; unit inferred; read-out: Inhibition of cysteine protease activities: USP7
T1 construct: Full-length wild-type human USP7; His (N); made in house; host or cells: Spodoptera frugiperda Sf9 (baculovirus, pFastBac-HT)
Source text: The cDNA encoding USP7 was obtained by PCR amplification from placenta mRNA. USP7 cDNA was subcloned by PCR into a baculovirus expression vector (pFastBac-HT; Invitrogen). Full-length wild-type human USP7 and its catalytic mutant (cysteine 223 replaced by alanine, C223A) were produced as N-terminally His-tagged fusions in Spodoptera frugiperda cells (Sf9, Invitrogen), using the Bac-to-Bac Baculovirus system from Invitrogen according to the manufacturer's instructions. pFastBac-HT-B-USP7 was used to transform DH10bac cells (Invitrogen), and blue/white selection was carried out on X-gal/IPTG agar plates. Bacmid DNA was prepared by an alkaline lysis procedure. The integrity of the bacmid minipreps and their orientation were checked by PCR, using generic and specific primers. Sf9 cells were cultured in InsectXpress medium (Cambrex) at 27°C and transfected with the corresponding bacmid, using GeneShuttle 40 (Q-BIOgen). Viruses were recovered in the supernatant 72 h after transfection. Viruses were amplified by infecting Sf9 cells in 50 ml InsectXpress medium in a 150 cm^2 cell culture flask with 500 µl of the supernatant from transfected Sf9 cells. Following the second round of amplification, Sf9 cells were recovered by rapid SDS lysis, boiled for 5 min at 100°C, sonicated briefly and centrifuged for 20 min at 14,000 g. Expression levels in infected Sf9 cells were compared with those in uninfected cells. […] Beads were extensively washed (50 mM sodium phosphate buffer pH 7.0, 500 mM NaCl, 10 mM Imidazole, 0.5% Triton X-100 and 10% glycerol) and bound proteins were eluted in wash buffer supplemented with 250 mM Imidazole (Sigma). Eluted fractions were resolved on 4-12% NuPAGE gels (Novex, Invitrogen). Fractions containing high concentrations of purified proteins (purity > 95%) were dialyzed (20 mM Tris HCl pH 7.6, 200 mM NaCl, 1 mM DTT, 1 mM EDTA and 10% glycerol) were aliquoted and snap frozen in liquid nitrogen before storage at -80°C.
USP7 was diluted in USP buffer (50 mM Tris HCl; 0.5 mM EDTA; 5 mM DTT; 0.01 % Triton X-100; Bovine Serum Albumin 0.05 mg.ml^-1 pH7.6). Compounds stocks (100 mM) were stored at -20°C in DMSO. Compounds were tested at different concentrations: from 200 µM to 91 nM.
Reactions were performed as duplicates in Black LJL 96 well plates (HE microplates; Molecular Devices; 20 µl final reaction volume). The substrate concentration for USP7 was 300 nM Ub-AMC (Chem. Biol., 2003, 10, p. 837-846) (Boston Biochem). The concentrations of the enzyme (USP7) in specificity assays was 100 pM. The concentrations were determined in order to perform specificity assays under initial velocities at fixed substrate concentration. Compounds were pre-incubated with enzymes for 30 minutes at 25°C. Reactions were initiated by addition of substrate to the plates containing the enzymes (+/- compounds) diluted in assay buffer. Reactions were incubated for 60 minutes at 37°C. Reactions were stopped by adding acetic acid (100 mM final). Readings were performed on a Pherastar Fluorescent Reader (BMG). λ […]. Data (mean values +/- standard deviation) were analyzed as % of control (no compound) and plotted as percentage versus the Log of the compound concentration using GraphPad (Prism). Data were fitted to a sigmoidal model (variable slope).

UCH-L3 = target: T2, UCH-L3 (Homo sapiens, UniProt P15374); experiment: UCH-L3 activity assay (Ub-AMC); type: biochemical; settings: 400 nM Ub-AMC, 13 pM enzyme; compounds tested from 200 µM to 91 nM; unit inferred; read-out: Inhibition of cysteine protease activities: Uch-L3
T2 sequence (P15374 1-230): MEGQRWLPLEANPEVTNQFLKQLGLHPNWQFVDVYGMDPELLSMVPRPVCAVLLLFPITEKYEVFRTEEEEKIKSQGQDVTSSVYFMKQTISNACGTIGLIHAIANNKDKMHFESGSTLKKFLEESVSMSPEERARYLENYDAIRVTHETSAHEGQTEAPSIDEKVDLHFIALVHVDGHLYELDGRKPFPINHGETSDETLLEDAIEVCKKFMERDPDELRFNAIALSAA
Protocol: UCH-L3 was diluted in USP buffer (50 mM Tris HCl; 0.5 mM EDTA; 5 mM DTT; 0.01% Triton X-100; Bovine Serum Albumin 0.05 mg.ml^-1 pH7.6). Compounds stocks (100 mM) were stored at -20°C in DMSO. Compounds were tested at different concentrations: from 200 µM to 91 nM. Reactions were performed as duplicates in Black LJL 96 well plates (HE microplates; Molecular Devices; 20 µl final reaction volume). The substrate concentration for UCH-L3 was 400 nM Ub-AMC (Boston Biochem). The concentration of the enzyme (UCH-L3) in specificity assays was 13 pM. The concentrations were determined in order to perform specificity assays under initial velocities at fixed substrate concentration. Compounds were pre-incubated with enzymes for 30 minutes at 25°C. Reactions were initiated by addition of substrate to the plates containing the enzymes (+/- compounds) diluted in assay buffer. Reactions were incubated for 60 minutes at 37°C. Reactions were stopped by adding acetic acid (100 mM final). Readings were performed on a Pherastar Fluorescent Reader (BMG). λ Emission 380 nm; λ Excitation = 460 nm. Data (mean values +/- standard deviation) were analyzed as % of control (no compound) and plotted as percentage versus the Log of the compound concentration using GraphPad (Prism). Data were fitted to a sigmoidal model (variable slope).

T1 sequence (Q93009 whole entry): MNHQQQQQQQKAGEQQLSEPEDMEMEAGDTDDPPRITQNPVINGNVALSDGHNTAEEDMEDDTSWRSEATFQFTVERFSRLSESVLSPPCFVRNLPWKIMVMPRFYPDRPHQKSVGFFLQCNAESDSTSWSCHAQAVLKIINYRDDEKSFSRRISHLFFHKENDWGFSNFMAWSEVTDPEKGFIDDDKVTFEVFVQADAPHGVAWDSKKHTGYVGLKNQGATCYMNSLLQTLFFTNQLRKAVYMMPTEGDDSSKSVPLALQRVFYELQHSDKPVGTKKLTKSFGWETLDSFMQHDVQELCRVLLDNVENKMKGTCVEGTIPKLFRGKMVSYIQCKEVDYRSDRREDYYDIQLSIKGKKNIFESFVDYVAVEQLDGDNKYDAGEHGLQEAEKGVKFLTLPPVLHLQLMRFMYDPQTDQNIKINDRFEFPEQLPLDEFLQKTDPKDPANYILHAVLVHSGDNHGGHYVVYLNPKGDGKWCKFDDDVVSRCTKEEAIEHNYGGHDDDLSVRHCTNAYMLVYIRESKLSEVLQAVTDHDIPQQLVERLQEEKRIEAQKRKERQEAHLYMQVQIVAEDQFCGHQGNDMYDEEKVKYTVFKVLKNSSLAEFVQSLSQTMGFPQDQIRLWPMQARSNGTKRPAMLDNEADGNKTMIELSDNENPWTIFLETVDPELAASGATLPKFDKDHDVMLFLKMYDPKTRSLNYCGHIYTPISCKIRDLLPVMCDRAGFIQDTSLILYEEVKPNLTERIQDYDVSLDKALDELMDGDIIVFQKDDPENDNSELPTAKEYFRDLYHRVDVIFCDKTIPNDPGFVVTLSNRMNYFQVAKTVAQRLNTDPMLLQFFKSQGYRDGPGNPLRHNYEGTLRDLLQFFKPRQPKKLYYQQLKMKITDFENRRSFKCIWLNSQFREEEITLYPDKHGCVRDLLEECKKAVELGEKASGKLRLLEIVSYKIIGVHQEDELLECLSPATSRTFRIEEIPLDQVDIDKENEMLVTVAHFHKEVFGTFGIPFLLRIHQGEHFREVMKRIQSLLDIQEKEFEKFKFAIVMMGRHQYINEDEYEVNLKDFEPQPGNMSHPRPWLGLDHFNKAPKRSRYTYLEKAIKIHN

Structure (SMILES)	IC50 (human USP7) [µM]	IC50 (UCH-L3) [µM]
COc1cccc(CCN2C(=O)C(O)=C(C(C)=O)C2c2ccc(Br)cc2)c1 (centres unmarked) [Example 30, 4-acetyl-5-(4-bromo-phenyl)-3-hydroxy-1-[2-(3-methoxyphenyl)-ethyl]-1,5-dihydro-pyrrol-2-one]	11.1	> 200
COc1ccc(CCN2C(=O)C(O)=C(C(C)=O)C2c2ccc(Br)cc2)cc1 (centres unmarked) [Example 32, 4-acetyl-5-(4-bromo-phenyl)-3-hydroxy-1-[2-(4-methoxyphenyl)-ethyl]-1,5-dihydro-pyrrol-2-one]	5.28	> 200
CCOc1ccc(CCN2C(=O)C(O)=C(C(C)=O)C2c2ccc(Br)cc2)cc1 (centres unmarked) [Example 34, 4-acetyl-5-(4-bromo-phenyl)-3-hydroxy-1-[2-(4-ethoxy-phenyl)-ethyl]-1,5-dihydro-pyrrol-2-one]	6.6	> 200
CC(=O)C1=C(O)C(=O)N(CCc2ccccc2)C1c1ccc2c(c1)OCO2 (centres unmarked) [Example 37, 4-acetyl-5-benzo[1,3]dioxol-5-yl-3-hydroxy-1-phenethyl-1,5-dihydro-pyrrol-2-one]	7.03	> 200
CC(=O)C1=C(O)C(=O)N(CCc2ccccc2)C1c1ccc(Br)c(Br)c1 (centres unmarked) [Example 41, 4-acetyl-5-(3,4-dibromo-phenyl)-3-hydroxy-1-phenethyl-1,5-dihydro-pyrrol-2-one]	8.98	> 200
CC(=O)C1=C(O)C(=O)N(CCc2ccccc2)C1c1cccnc1Cl (centres unmarked) [Example 42, 4-acetyl-5-(2-chloro-pyridin-3-yl)-3-hydroxy-1-phenethyl-1,5-dihydro-pyrrol-2-one]	12	> 200
CC(=O)C1=C(O)C(=O)N(CCc2ccc(Cl)cc2)C1c1ccc(Cl)cc1 (centres unmarked) [Example 46, 4-Acetyl-5-(4-chlorophenyl)-1-[2-(4-chlorophenyl)-ethyl]-3-hydroxy-1,5-dihydro-pyrrol-2-one]	4.4	> 200

Compounds with a lower IC50 (human USP7), results first:

IC50 (human USP7) [µM]	IC50 (UCH-L3) [µM]	Structure (SMILES)
4.2	> 200	CC(=O)C1=C(O)C(=O)N(CCc2ccc(Br)cc2)C1c1ccc(Cl)cc1 (centres unmarked) [Example 45, 4-Acetyl-5-(4-chlorophenyl)-1-[2-(4-bromophenyl)-ethyl]-3-hydroxy-1,5-dihydro-pyrrol-2-one]
3.1	> 200	CC(=O)C1=C(O)C(=O)N(CCc2ccc(Cl)cc2)C1c1ccc(Br)cc1 (centres unmarked) [Example 25, 4-acetyl-5-(4-bromo-phenyl)-1-[2-(4-chloro-phenyl)-ethyl]-3-hydroxy-1,5-dihydro-pyrrol-2-one]
3.05	> 200	CC(=O)C1=C(O)C(=O)N(CCc2ccc(F)cc2)C1c1ccc(Br)cc1 (centres unmarked) [Example 33, 4-acetyl-5-(4-bromo-phenyl)-3-hydroxy-1-[2-(4-fluorophenyl)-ethyl]-1,5-dihydro-pyrrol-2-one]
2.7	> 200	CC(=O)C1=C(O)C(=O)N(CCc2ccc(Br)cc2)C1c1ccc(Br)cc1 (centres unmarked) [Example 26, 4-acetyl-5-(4-bromo-phenyl)-1-[2-(4-bromo-phenyl)-ethyl]-3-hydroxy-1,5-dihydro-pyrrol-2-one]
1.9	> 200	CC(=O)C1=C(O)C(=O)N(CCc2ccc(Cl)cc2Cl)C1c1ccc(Br)cc1 (centres unmarked) [Example 47, 4-Acetyl-5-(4-bromophenyl)-1-[2-(2,4-dichlorophenyl)-ethyl]-3-hydroxy-1,5-dihydro-pyrrol-2-one]
1.61	> 200	CC(=O)C1=C(O)C(=O)N(CCc2ccc(Cl)c(Cl)c2)C1c1ccc(Br)cc1 (centres unmarked) [Example 28, 4-acetyl-5-(4-bromo-phenyl)-1-[2-(3,4-dichloro-phenyl)-ethyl]-3-hydroxy-1,5-dihydro-pyrrol-2-one]

Source: patent EP2208725A1, “Novel specific inhibitors of ubiquitin specific protease 7, the pharmaceutical compositions thereof and their therapeutic applications” (Hybrigenics S.A., priority 2009, dated 2010)
